Data reported in paper PMC4503722, “Novel Phenotypic Outcomes Identified for a Public Collection of Approved Drugs from a Publicly Accessible Panel of Assays” (PLoS ONE, 2015).

Key:
Colo320 = experiment: cells; type: cell-based; conditions: for Basal_Viability ATP Colo 320 IC50/EC50: assay number 27
DLD-1 = experiment: cells; type: cell-based; conditions: for Basal_Viability ATP DLD-1 IC50/EC50: assay number 23
RKO = experiment: cells; type: cell-based; conditions: for Basal_Viability ATP RKO IC50/EC50: assay number 29
HT-29 = experiment: cells; type: cell-based; conditions: for Basal_Viability ATP HT-29 IC50/EC50: assay number 28
SW480 = experiment: cells; type: cell-based; conditions: for Basal_Viability ATP SW480 IC50/EC50: assay number 24
[1] = tested on: ECFC/ADSC co-culture cell nuclei number
[2] = tested on: HCT116 cells treated with a GSK3β inhibitor; experiment: cells; type: cell-based; conditions: for GSK3b inh pretreated_Viability ATP HCT116 IC50/EC50: assay number 26, GSK3b inhibitor pretreated; for IC50/EC50, GSK3b inh pretreated_Viability ATP HCT116 (assay number 26): GSK3b inh pretreated
HCT116 = experiment: cells; type: cell-based; conditions: basal; for Basal_Viability ATP HCT116 IC50/EC50: assay number 25
[3] = tested on: endothelial tube formation in co-cultures of ECFCs and ADSCs treated with VEGF; experiment: cells; type: cell-based, human
SNU-C1 = experiment: cells; type: cell-based; conditions: for Basal_Viability ATP SNU-C1 IC50/EC50: assay number 30

Compound | Basal_Viability ATP Colo 320 IC50/EC50 (Colo320; concentration response) [µM] | Basal_Viability ATP DLD-1 IC50/EC50 (DLD-1; concentration response) [µM] | Basal_Viability ATP RKO IC50/EC50 (RKO; concentration response) [µM] | Basal_Viability ATP HT-29 IC50/EC50 (HT-29; concentration response) [µM] | Basal_Viability ATP SW480 IC50/EC50 (SW480; concentration response) [µM] | VEGF_ADSC\ECFC Angio Hoechst NucArea IC50/EC50 [1] [µM] | GSK3b inh pretreated_Viability ATP HCT116 IC50/EC50 ([2]; concentration response) [µM] | Basal_Viability ATP HCT116 IC50/EC50 (HCT116; concentration response) [µM] | VEGF_ADSC\ECFC Angio CD31 TubeArea IC50/EC50 [3] [µM] | Basal_Viability ATP SNU-C1 IC50/EC50 (SNU-C1; concentration response) [µM] | Basal_Viability ATP Colo 320 IC50/EC50 (Colo320; basal) [µM] | Basal_Viability ATP DLD-1 IC50/EC50 (DLD-1; basal) [µM] | Basal_Viability ATP RKO IC50/EC50 (RKO; basal) [µM] | Basal_Viability ATP HT-29 IC50/EC50 (HT-29; basal) [µM] | Basal_Viability ATP SW480 IC50/EC50 (SW480; basal) [µM] | GSK3b inh pretreated_Viability ATP HCT116 IC50/EC50 [2] [µM] | Basal_Viability ATP HCT116 IC50/EC50 (HCT116) [µM] | Basal_Viability ATP SNU-C1 IC50/EC50 (SNU-C1; basal) [µM] | other results
O=C(NC(=O)c1c(F)cccc1F)Nc1ccc(Cl)c(Oc2ncc(C(F)(F)F)cc2Cl)c1 [NCGC00166205-02] | > 20 | > 20 | 11.8144 | > 20 | > 20 | > 10 | 10.6205 | > 20 | > 10 | > 20 |  |  |  |  |  |  |  |  | 
C[C@H](O)CN(C)C [NCGC00166221-02] |  |  |  |  |  |  |  |  |  |  |  |  |  |  |  |  |  |  | IC50/EC50, Basal_Viability ATP Colo 320 (assay number 27) (Colo320; basal): > 20 µM; IC50/EC50, Basal_Viability ATP DLD-1 (assay number 23) (DLD-1; basal): > 20 µM; IC50/EC50, Basal_Viability ATP RKO (assay number 29) (RKO; basal): > 20 µM; IC50/EC50, Basal_Viability ATP HT-29 (assay number 28) (HT-29; basal): > 20 µM; IC50/EC50, Basal_Viability ATP SW480 (assay number 24) (SW480; basal): > 20 µM; IC50/EC50, VEGF_ADSC\ECFC Angio Hoechst NucArea (assay number 3) [1]: > 10 µM; IC50/EC50, GSK3b inh pretreated_Viability ATP HCT116 (assay number 26) [2]: > 20 µM; IC50/EC50, Basal_Viability ATP HCT116 (assay number 25) (HCT116): > 20 µM; IC50/EC50, VEGF_ADSC\ECFC Angio CD31 TubeArea (assay number 2) [3]: > 10 µM; IC50/EC50, Basal_Viability ATP SNU-C1 (assay number 30) (SNU-C1; basal): > 20 µM
C=CCCCCCCCCC(=O)OC [NCGC00166231-02] | > 20 | > 20 | > 20 | > 20 | > 20 | > 10 | > 20 | > 20 | > 10 | > 20 |  |  |  |  |  |  |  |  | 
Clc1ccc(C(Cn2ccnc2)OCc2ccsc2Cl)c(Cl)c1 (stereo not drawn) [NCGC00167430-04] |  |  |  |  |  | 9.466 |  |  | 4.9961 |  | 5.2288 | > 20 | 5.2538 | > 20 | > 20 | 2.843 | 4.0687 | 2.1843 | 
Cc1cccc(C)c1NC(=O)CC12CCCN1CCC2 [NCGC00167454-02] |  |  |  |  |  | > 10 |  |  | > 10 |  | > 20 | > 20 | > 20 | > 20 | > 20 | > 20 | > 20 | > 20 | 
CC(C)Cn1cnc2c1c(=O)n(C)c(=O)n2C [NCGC00168348-03] |  |  |  |  |  | > 10 |  |  | > 10 |  | > 20 | > 20 | > 20 | > 20 | > 20 | > 20 | > 20 | > 20 | 
CC(=O)N(CC(O)CN(C(C)=O)c1c(I)c(C(=O)NCC(O)CO)c(I)c(C(=O)NCC(O)CO)c1I)c1c(I)c(C(=O)NCC(O)CO)c(I)c(C(=O)NCC(O)CO)c1I (stereo not drawn) [NCGC00179408-03] |  |  |  |  |  | > 10 |  |  | > 10 |  | > 20 | > 20 | > 20 | > 20 | > 20 | > 20 | > 20 | > 20 | 
CN1CCN(CCCN2c3ccccc3Sc3ccc(S(=O)(=O)N(C)C)cc32)CC1 [NCGC00179625-03] |  |  |  |  |  |  |  |  |  |  |  |  |  |  |  |  |  |  | IC50/EC50, Basal_Viability ATP Colo 320 (assay number 27) (Colo320; basal): 8.1661 µM; IC50/EC50, Basal_Viability ATP DLD-1 (assay number 23) (DLD-1; basal): 14.5523 µM; IC50/EC50, Basal_Viability ATP RKO (assay number 29) (RKO; basal): 5.9932 µM; IC50/EC50, Basal_Viability ATP HT-29 (assay number 28) (HT-29; basal): > 20 µM; IC50/EC50, Basal_Viability ATP SW480 (assay number 24) (SW480; basal): > 20 µM; IC50/EC50, VEGF_ADSC\ECFC Angio Hoechst NucArea (assay number 3) [1]: > 10 µM; IC50/EC50, GSK3b inh pretreated_Viability ATP HCT116 (assay number 26) [2]: > 20 µM; IC50/EC50, Basal_Viability ATP HCT116 (assay number 25) (HCT116): > 20 µM; IC50/EC50, VEGF_ADSC\ECFC Angio CD31 TubeArea (assay number 2) [3]: > 10 µM; IC50/EC50, Basal_Viability ATP SNU-C1 (assay number 30) (SNU-C1; basal): 2.1198 µM
N/C(=N\N=C\c1ccc(Cl)cc1)N/N=C/c1ccc(Cl)cc1 [NCGC00181026-02] |  |  |  |  |  |  |  |  |  |  |  |  |  |  |  |  |  |  | IC50/EC50, Basal_Viability ATP Colo 320 (assay number 27) (Colo320; basal): 0.4583 µM; IC50/EC50, Basal_Viability ATP DLD-1 (assay number 23) (DLD-1; basal): 0.6538 µM; IC50/EC50, Basal_Viability ATP RKO (assay number 29) (RKO; basal): 0.47 µM; IC50/EC50, Basal_Viability ATP HT-29 (assay number 28) (HT-29; basal): 0.6811 µM; IC50/EC50, Basal_Viability ATP SW480 (assay number 24) (SW480; basal): 0.2252 µM; IC50/EC50, VEGF_ADSC\ECFC Angio Hoechst NucArea (assay number 3) [1]: > 10 µM; IC50/EC50, GSK3b inh pretreated_Viability ATP HCT116 (assay number 26) [2]: 0.3442 µM; IC50/EC50, Basal_Viability ATP HCT116 (assay number 25) (HCT116): 0.394 µM; IC50/EC50, VEGF_ADSC\ECFC Angio CD31 TubeArea (assay number 2) [3]: > 10 µM; IC50/EC50, Basal_Viability ATP SNU-C1 (assay number 30) (SNU-C1; basal): 0.2795 µM
CC(C)(CO)[C@@H](O)C(=O)NCCC(=O)NCCSSCCNC(=O)CCNC(=O)[C@H](O)C(C)(C)CO [NCGC00181028-02] | > 20 | > 20 | > 20 | > 20 | > 20 | > 10 | > 20 | > 20 | > 10 | > 20 |  |  |  |  |  |  |  |  | 
CC(CC=O)CCCC(C)(C)O (stereo not drawn) [NCGC00181031-03] |  |  |  |  |  | > 10 |  |  | > 10 |  | > 20 | > 20 | > 20 | > 20 | > 20 | > 20 | > 20 | > 20 | 
CC(C)[C@@H]1CC[C@@H](C)C[C@H]1OC(=O)c1ccccc1O [NCGC00181042-02] | > 20 | > 20 | > 20 | > 20 | > 20 | > 10 | > 20 | > 20 | > 10 | > 20 |  |  |  |  |  |  |  |  | 
